Publication PMC12751141, “Disrupting α-Synuclein–ClpP interaction restores mitochondrial function and attenuates neuropathology in Parkinson’s disease models” (Molecular Neurodegeneration, 2025)

Columns and labels:
[1] = system: A53T-αSyn iPSC-derived neurons; experiment: Mitochondrial function (Mito-SOX, TMRM, ATP) in A53T-αSyn iPSC-derived neurons; type: cell-based, human
Text: PD iPS cells lines (αSyn A53T, NN0004337, donor) and its isogenic corrected control line (NN0004344) were obtained from RUCDR Infinite Biologics. The iPS cells were differentiated into dopaminergic neuron-enriched neuronal culture with the protocol described previously. Briefly, iPS cell colonies were disassociated with accutase (Invitrogen), plated onto 6-well plates pre-coated with 2.5% Matrigel (BD Biosciences) and allowed to reach 80% confluence in mTeSR medium (Stem Cell Technology). For the first 10 days, cells were treated with SB431542 (10 µM; Tocris Bioscience) and Noggin (100 ng/ml) in Neural Media (NM) with FGF2 ([…]) and EGF ([…]). NM media contained: Neurobasal and DMEM/F12 (1:1), B-27 Supplement Minus Vitamin A (50×, Invitrogen), N2 Supplement (100X, Invitrogen), GlutaMAX (Invitrogen, 100×), 100 units/ml penicillin and 100 µg/ml streptomycin (Fisher); for the next 4 days, cells were treated with human recombinant Sonic hedgehog (SHH, 200 ng/ml) in neuronal differentiation medium. […]
Cells cultured on coverslips or 24-well plates were washed with DPBS and then incubated with 5 µM Mito-SOX™ Red (Invitrogen, M36008), a mitochondrial superoxide indicator, for 10 min at 37 °C. For cells cultured on coverslips, the images were visualized by microscope, and quantification of images was then carried out using NIH ImageJ software. At least 100 cells per group were counted in the analysis.
Cells cultured on coverslips or 24-well plates were washed with DPBS and then incubated with 0.25 µM Tetramethylrhodamine, methyl ester (TMRM) (Invitrogen, T668), for 20 min at 37 °C. For cells cultured on coverslips, the images were visualized by microscope, and quantification of images was then carried out using NIH Fiji ImageJ software. At least 100 cells per group were counted in the analysis.
Cells were seeded in 24-well plates, followed by the indicated treatment. The ATP level in each well was determined using the ATP assay kit according to the manufacturer’s procedures (Cayman Chemical, 700410).

[2] = system: mThy1-hSNCA mice (substantia nigra / midbrain); experiment: Brain immunostaining / immunohistochemistry in mThy1-hSNCA mice; type: in vivo, mouse; details: 3 mg/kg/day s.c.
Experimental: C57BL/6 N-Tg (Thy1-SNCA)15Mjff/J (JAX: 017682) breeders (C57Bl/6NJ genetic background) were purchased from Jackson Laboratories. The mice were mated, bred, and genotyped in the animal facility of Case Western Reserve University. All mice were maintained at a 12-hour light/dark cycle (on 6 am, off 6 pm). All randomization and peptide treatments in mThy1-hSNCA mice were prepared by an experimenter not associated with the behavioral and neuropathology analysis. Only male mice were used in the study. mThy1-hSNCA transgenic mice and their age-matched WT littermates were implanted with a 28-day subcutaneous osmotic pump (Alzet, Cupertino CA, Model 2004) containing either TAT control peptide or CS2 peptide, which delivered the peptides at indicated rate (1 or 3 or 10 mg/kg/day). The pump was replaced once every four weeks. All mice were sacrificed at age of 10-month for neuropathology assessment.
For immunofluorescence staining of mouse brain sections, mice were deeply anesthetized and transcardially perfused with 4% paraformaldehyde in PBS. Brain sections were washed in PBS 3 times and subjected for antigen retrieval in 0.01 M sodium citrate buffer with 0.05% TWEEN-20, followed by permeation with 0.2% Triton X-100 in PBS at room temperature for 10 min. Sections were then blocked with 10% normal goat serum in PBS and incubated with primary antibodies overnight at 4 °C and then stained with secondary antibodies. Images of the staining were acquired using Fluoview (FV3000) confocal microscope (Olympus).
Frozen brain sections (20 μm, coronal) were washed in PBS 3 times and subjected for antigen retrieval in 0.01 M sodium citrate buffer with 0.05% TWEEN-20. After washing 3 times in TBS, sections were then incubated in 3%H2O2/w methanol for 30 min at room temperature to quench endogenous peroxidase. After washing in TBS, sections were blocked in 10% normal goat serum with 1XTBST for one hour at room temperature and incubated with anti-pS129-αSyn (ab51253, clone EP1536Y, abcam) or anti- αSyn aggregates (MABN389, clone 5G4, Millipore) antibody in TBST overnight. Secondary antibody and DAB staining were provided by the IHC Select HRP/DAB kit (DAB150, Millipore). Hematoxylin QS (H-3404, Vector laboratory) was used to stain nucleus. The intensity of αSyn was conducted using Fiji ImageJ software. The same image exposure times and threshold settings were used for all sections from all treatment groups. Quantitation was performed blinded to the experimental groups.
Fig. 7 CS2 treatment is protective in mThy1-hSNCA mouse model of PD. (A) Experimental schematic of CS2 treatment in mThy1-hSNCA (Thy1) mouse model of PD: TAT or CS2 peptide was administered (3 mg/kg/day) via subcutaneous osmotic pump (O.P.) in Thy1 mice and their wild-type (WT) littermates starting from age of 4-month till 10-month. […] (D) Representative images of pS129-αSyn staining in substantia nigra of WT and Thy1 mice treated with TAT or CS2 peptide (scale bar = 100 μm). […] (G) Representative images of ClpP and tyrosine […] (TH) staining on the brain coronal sections from TAT or CS2-treated Thy1 mice and their WT littermates (scale bar = 100 μm). […] (H) Representative images of IBA1 and GFAP staining in the midbrain of TAT or CS2 treated Thy1 mice and their WT littermates (SN: substantia nigra) (scale bar = 180 μm).
(B) Representative images of αSyn aggregates staining (5G4) in substantia nigra of TAT or CS2 treated Thy1 mice (scale bar = 40µm).

ClpP (SH-SY5Y cells) = experiment: ClpP protein level, western blot, SH-SY5Y cells; type: cell-based
[3] = midbrain, mThy1-hSNCA, n = 3 mice/group

CC(C)[C@H](NC(=O)CNC(=O)CNC(=O)CCCCCNC(=O)[C@H](CCCNC(=N)N)NC(=O)[C@H](CCCNC(=N)N)NC(=O)[C@H](CCCNC(=N)N)NC(=O)[C@H](CCC(N)=O)NC(=O)[C@H](CCCNC(=N)N)NC(=O)[C@H](CCCNC(=N)N)NC(=O)[C@H](CCCCN)NC(=O)[C@H](CCCCN)NC(=O)[C@H](CCCNC(=N)N)NC(=O)CNC(=O)[C@@H](N)Cc1ccc(O)cc1)C(=O)N[C@H](C(=O)N[C@H](C(=O)N[C@@H](C)C(=O)O)[C@@H](C)O)C(C)C [CS2, TAT-C6-GGVVTA]
mitochondrial ROS, iPSC neurons ([1]; Mito-SOX, n = 3): reduced mitochondrial ROS
mitochondrial membrane potential, iPSC neurons ([1]; TMRM, n = 3): rescued mitochondrial membrane potential
ATP content, iPSC neurons ([1]; n = 6): rescued mitochondrial membrane potential and ATP content
ClpP level in midbrain DA neurons ([2]; TH+ neurons, immunostaining, n = 3 mice/group): restored by CS2
IBA1 and GFAP in WT mice ([2]; WT mice): no effect in WT mice
GFAP (astrocyte) intensity [2, 3]: significantly attenuated both markers
IBA1 (microglia) intensity [2, 3]: significantly attenuated both markers
pS129-αSyn accumulation in SN ([2]; n = 3 mice/group): reduced by CS2 treatment
αSyn aggregates in SN (5G4) ([2]; n = 3 mice/group): reduced by CS2 treatment
ClpP level, Tet-inducible αSyn SH-SY5Y (ClpP (SH-SY5Y cells); Tet-inducible αSyn-expressing SH-SY5Y, vs TAT, n = 3): marked increase in ClpP levels
ClpP protein level, SH-SY5Y (ClpP (SH-SY5Y cells); WT or A53T αSyn overexpression, 30 min pretreatment, n = 4–5 (CS1: n = 4)): significantly restored ClpP protein levels
